In PubChem BioAssay (NCI):
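Dose response: 5 concentrations. Exposure: 48 h. Format: 96-well plates. Endpoint: linear interpolation; highest concentration if not reached. At the GI50, growth is halved. TGI is the concentration that stops growth completely.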

Legend:
Assay in all cases: NCI anticancer screen, dose series, 48 h
HCT-116 colon = test system: HCT-116 colon
HL-60(TB) leukemia = test system: HL-60(TB) leukemia
MDA-MB-231 breast = test system: MDA-MB-231 breast
T-47D breast = test system: T-47D breast
NCI-H460 lung = test system: NCI-H460 lung
A549 NSCLC = test system: A549 NSCLC
HS 578T breast = test system: HS 578T breast
SW-620 colon = test system: SW-620 colon
COLO 205 colon = test system: COLO 205 colon
RXF 393 renal = test system: RXF 393 renal
TK-10 renal = test system: TK-10 renal
KM12 colon = test system: KM12 colon
UACC-257 melanoma = test system: UACC-257 melanoma
CCRF-CEM leukemia = test system: CCRF-CEM leukemia
SR leukemia = test system: SR leukemia
UO-31 renal = test system: UO-31 renal
SK-MEL-5 melanoma = test system: SK-MEL-5 melanoma
SF-539 CNS = test system: SF-539 CNS
PC-3 prostate = test system: PC-3 prostate
HCT-15 colon = test system: HCT-15 colon
SNB-19 CNS = test system: SNB-19 CNS
OVCAR-8 ovarian = test system: OVCAR-8 ovarian
M14 melanoma = test system: M14 melanoma
NCI-H226 lung = test system: NCI-H226 lung
HOP-62 NSCLC = test system: HOP-62 NSCLC

## Cc1cc(N2CCCCC2)nc(NCc2cc(Nc3ccnc4cc(Cl)ccc34)ccc2F)n1
HCT-116 colon
  GI50: 1640 nM
  TGI: 3500 nM
HL-60(TB) leukemia
  GI50: 1930 nM
  TGI: 3970 nM
MDA-MB-231 breast
  GI50: 1810 nM
  TGI: 3500 nM
T-47D breast
  GI50: 1260 nM
  TGI: 2990 nM
NCI-H460 lung
  GI50: 1990 nM
  TGI: 4170 nM
A549 NSCLC
  GI50: 1700 nM
  TGI: 3220 nM
HS 578T breast
  GI50: 2030 nM
  TGI: 4620 nM
SW-620 colon
  GI50: 1450 nM
  TGI: 3590 nM
COLO 205 colon
  GI50: 329 nM
  TGI: 1400 nM
RXF 393 renal
  GI50: 1790 nM
  TGI: 3470 nM
TK-10 renal
  GI50: 1960 nM
  TGI: 3670 nM
KM12 colon
  GI50: 1690 nM
  TGI: 3290 nM
UACC-257 melanoma
  GI50: 1320 nM
  TGI: 2850 nM
CCRF-CEM leukemia
  GI50: 921 nM
  TGI: 4330 nM
SR leukemia
  GI50: 1940 nM
  TGI: 4990 nM
UO-31 renal
  GI50: 1610 nM
  TGI: 3130 nM
SK-MEL-5 melanoma
  GI50: 1050 nM
  TGI: 2250 nM
SF-539 CNS
  GI50: 1580 nM
  TGI: 3040 nM
PC-3 prostate
  GI50: 1900 nM
  TGI: 4040 nM
HCT-15 colon
  GI50: 1840 nM
  TGI: 3800 nM
SNB-19 CNS
  GI50: 1870 nM
  TGI: 6330 nM
OVCAR-8 ovarian
  GI50: 2050 nM
  TGI: 4680 nM
M14 melanoma
  GI50: 1920 nM
  TGI: 3690 nM
NCI-H226 lung
  GI50: 2020 nM
  TGI: 4570 nM
HOP-62 NSCLC
  GI50: 1400 nM
  TGI: 2890 nM
